One experiment concerns the target BTK (Homo sapiens (Human), UniProt Q06187). The experiment in a line: BTK enzyme experiment (ADP-Glo kinase assay). Format: biochemical. The following applies: 10 nM BTK, ATP 125 μM, Poly(Glu4, Tyr1), 90 minutes at 20° C.; read-out: BTK(WT) IC50. A digest of the protocol: (§1)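 Wild-type or C481S BTK, added as 2× solution at 10 nM, preincubated 10 min with 3-fold compound dilutions in 50 mM HEPES pH 7.5, 10 mM MgCl2, 2 mM DTT, 0.0015% Brij-35. ADP-Glo luminescence norm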
Background: In ADP-Glo the light output rises with the ADP produced.

Another experiment deals with p-BTK (WT) (Homo sapiens (Human), UniProt Q06187). The experiment can be described thus: p-BTK cell experiment, HEK293 transfected with WT-BTK plasmid (P-BTK Y223 sandwich ELISA). The note with it: HEK293 cells, compound cultured for two hours. Format: cell-based. As to the method: (§2) Day 1: HEK293 cells (ADDEXBIO, T0011001) at logarithmic growth phase were taken, digested with enzyme EDTA, collected and counted, and 2E6 cells were inoculated in a 10 cm culture dish and cultured overnight. Day 2: A mixed solution containing 6 μg of WT-BTK/C481S-BTK plasmid and 18 μL of FuGENE HD transfection reagent was prepared by using 1000 μL of Opti-MEM. After standing at room temperature for 10 minutes, the mixed solution was slowly added to the culture dish with a pipettor and cultured overnight. Day 3: The culture dish was taken out, and the cells were digested with enzyme EDTA, collected and counted, and 1E4 cells were inoculated in a 96-well cell culture plate and cultured overnight. A 3.16-fold gradient concentration stock solution of 1000× compound was prepared using DMSO, and placed at room temperature. Day 4: A prepared 1000× compound stock solution was taken, and diluted 200-fold to 5× compound stock solution with culture medium. 5× compound stock solution was added to each cell culture well with a final concentration of 1× compound stock solution and a DMSO content of 0.1%. DMSO was used as an experimental control. After the compound was added and cultured for two hours, the residual culture medium was removed. 100 μL of cell lysis buffer was added to each well, stood on ice for 30 minutes, and ultrasonically lysed with ice water for 5 minutes. After diluting the cell lysate in proportion, 80 μL of the mixture was transfer to an ELISA plate, and 80 μL of cell lysis buffer was added to the blank well. After incubating in an incubator at 37° C. for 2 hours, the plate was taken and the antibody incubation and color development termination operation were completed according to the instructions of Pathscan P-BTK (Y223) Sandwich ELISA Kit (Cell Signaling #23843 CA), and finally the OD value was read. The inhibition rate of the compound (%)=(ODcontrol−ODcompound)/(ODcontrol−ODblank)×100% was calculated. The compound gradient dilution concentration and the corresponding cell proliferation inhibition rate were fit by using Prism 8 four-parameter method, and IC50 value was calculated.

A further experiment relates to OCI-LY10 cells. The experiment can be described thus: OCI-LY10 proliferation inhibition experiment. The format is cell-based. The note with it: human diffuse large B lymphoma cells, three days incubation. On the procedure:
TMD-8 cells are human diffuse large B lymphoma (Mingzhou Bio, MZ-0832), cultured in 10% FBS+1% PS 1640 medium; OCI-LY10 is human diffuse large B lymphoma (BeNa Culture Collection, BNCC337742), cultured in 10% FBS+1% PS IMDM. Day 1: Cells at logarithmic growth phase were taken, counted and inoculated 600 TMD-8 or 2000 OCI-LY10 cells in a 384-well cell culture plate and cultured overnight. Day 2: A 3-fold gradient concentration stock solution of 400× compound was prepared with DMSO, and diluted 40-fold to a 10× compound stock solution with culture medium. The 10× compound stock solution was added to each cell culture well with a final concentration of 1× compound stock solution and a DMSO content of 0.25%. DMSO was used as experimental control, and culture medium was used as blank control. The incubation was continued for three days after compound addition. On the fifth day, 25 μL of […] was added to each well, mixed well and incubated for 10 minutes, then the chemiluminescence value (RLU value) was read. The cell proliferation inhibition rate (%)=(RLUcontrol−RLUcompound)/(RLUcontrol−RLUblank)×100% was calculated. The compound gradient dilution concentration and the corresponding cell proliferation inhibition rate were fit by using XLFit four-parameter method, and IC50 value was calculated.

The next experiment addresses p-BTK (C481S) (Homo sapiens (Human), UniProt Q06187, C481S). The experiment in a line: p-BTK cell experiment, HEK293 transfected with C481S-BTK plasmid (P-BTK Y223 sandwich ELISA). The format is cell-based. The following applies: HEK293 cells, compound cultured for two hours. As to the method:
as §2
A general note: ELISA stands for enzyme-linked immunosorbent assay.

The subject of a further experiment is TMD-8 cells. The experiment can be described thus: TMD-8 proliferation inhibition experiment. Format: cell-based. The note with it: human diffuse large B lymphoma cells, three days incubation. A digest of the protocol: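 Log-phase cells seeded in 384-well plates (600 TMD-8 in RPMI 1640, 2000 OCI-LY10 in IMDM, both 10% FBS), then exposed one day later to 3-fold compound dilutions at 0.25% DMSO for three days. ADP-Glo luminescence read; inhibition versus DMSO and medium-only blank, IC50 by four-parameter fit.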

The target of a further experiment is BTK (C481S) (Homo sapiens (Human), UniProt Q06187, C481S). The experiment can be described thus: BTK C481S enzyme experiment (ADP-Glo kinase assay). Format: biochemical. The note with it: 10 nM BTK C481S, ATP 125 μM, Poly(Glu4, Tyr1), 90 minutes at 20° C. A digest of the protocol:
as §1

Here are results for 8 compounds from patent US20240360154A1, “AROYL SUBSTITUTED TRICYCLIC COMPOUND, PREPARATION METHOD THEREFOR AND USE THEREOF” (GENFLEET THERAPEUTICS (SHANGHAI) INC., priority 2020, published 2024).

Structures are written as SMILES.

Chain of BTK (Q06187 whole entry): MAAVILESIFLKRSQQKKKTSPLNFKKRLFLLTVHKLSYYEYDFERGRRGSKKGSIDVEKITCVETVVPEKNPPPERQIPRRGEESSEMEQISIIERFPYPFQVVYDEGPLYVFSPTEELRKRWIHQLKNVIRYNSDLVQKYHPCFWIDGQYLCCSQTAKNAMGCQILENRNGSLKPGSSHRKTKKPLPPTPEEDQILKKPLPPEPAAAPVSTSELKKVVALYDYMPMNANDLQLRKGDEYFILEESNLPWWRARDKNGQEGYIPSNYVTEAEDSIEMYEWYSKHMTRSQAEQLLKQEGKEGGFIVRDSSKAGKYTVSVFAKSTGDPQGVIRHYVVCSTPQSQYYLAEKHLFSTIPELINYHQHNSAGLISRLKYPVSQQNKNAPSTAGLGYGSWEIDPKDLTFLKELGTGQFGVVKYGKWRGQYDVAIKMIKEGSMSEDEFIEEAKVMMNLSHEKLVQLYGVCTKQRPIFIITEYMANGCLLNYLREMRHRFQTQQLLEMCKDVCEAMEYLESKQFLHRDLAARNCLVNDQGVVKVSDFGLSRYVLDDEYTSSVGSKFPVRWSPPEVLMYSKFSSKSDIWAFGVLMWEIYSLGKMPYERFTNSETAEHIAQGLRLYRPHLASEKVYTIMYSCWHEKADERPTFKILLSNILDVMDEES
Chain of p-BTK (WT) (Q06187 whole entry): as above
Chain of BTK (C481S) (Q06187 whole entry C481S): as the sequence (Q06187 whole entry) above, with C481S counted along it
Chain of p-BTK (C481S) (Q06187 whole entry C481S): as the sequence (Q06187 whole entry) above, with C481S counted along it

As to `CN1CC[C@]2(C1)Nc1c(cnc3[nH]cc(C(=O)c4ccc(Oc5ccccc5)cc4Cl)c13)NC2=O` (single isomer, unassigned) [Z2-1], the IC50 (as a rule, the concentration needed to halve the response being measured) at BTK was 19 nM; against p-BTK (WT) it was 29.2 nM; in the experiment on OCI-LY10 cells, 200 nM; against p-BTK (C481S), 50 nM; in the experiment on TMD-8 cells it was 123 nM; against BTK (C481S), 9.2 nM.

Consider `CN1CC[C@@]2(C1)Nc1c(cnc3[nH]cc(C(=O)c4ccc(Oc5ccccc5)cc4Cl)c13)NC2=O` (single isomer, unassigned) [Z2-2], for which the IC50 on BTK was found to be 25.4 nM; against p-BTK (WT), 41.5 nM; with OCI-LY10 cells it was 307 nM; against p-BTK (C481S) it was 56.6 nM; with TMD-8 cells it was 266 nM; at BTK (C481S), 10.9 nM.

`CN1CCC2(C1)Nc1c(cnc3[nH]cc(C(=O)c4ccc(Oc5ccccc5)cc4Cl)c13)NC2=O` (stereo not shown) [Z2]: the IC50 at BTK was 19.4 nM; at p-BTK (WT), 123 nM; with OCI-LY10 cells it was 238 nM; against p-BTK (C481S), 72.8 nM; in the experiment with TMD-8 cells, 188 nM; on BTK (C481S) it was 12.3 nM.

Turning to `COC[C@]1(C)Nc2c(cnc3[nH]cc(C(=O)c4ccc(Oc5ccccc5F)cc4Cl)c23)NC1=O` [Z155, (S)-9-(2-chloro-4-(2-fluorophenoxy)benzoyl)-2-(methoxymethyl)-2-methyl-1,2,4,7-tetrahydro-3H-pyrrolo[3′,2′:5,6]pyrido[3,4-b]pyrazin-3-one], the IC50 at BTK is 8.6 nM; against p-BTK (WT) it was 28 nM; against p-BTK (C481S), 48.2 nM; in the experiment with TMD-8 cells (Homo sapiens, TMD8, 72 h) it was 87 nM; on BTK (C481S), 10.6 nM.

Turning to `[2H]C([2H])([2H])OC[C@]1(C)Nc2c(cnc3[nH]cc(C(=O)c4ccc(Oc5ccccc5F)cc4Cl)c23)NC1=O` [Z160, (S)-9-(2-chloro-4-(2-fluorophenoxy)benzoyl)-2-((methoxy-d3)methyl)-2-methyl-1,2,4,7-tetrahydro-3H-pyrrolo[3′,2′:5,6]pyrido[3,4-b]pyrazin-3-one], the IC50 worked out at 16.8 nM at BTK; 16.7 nM against p-BTK (WT); 27.5 nM on p-BTK (C481S); 108 nM in the experiment on TMD-8 cells (Homo sapiens, TMD8, 72 h); 21.5 nM on BTK (C481S).

As for `[2H]C([2H])([2H])OC[C@]1(C([2H])([2H])[2H])Nc2c(cnc3[nH]cc(C(=O)c4ccc(Oc5ccccc5)cc4Cl)c23)NC1=O` [Z161, (S)-9-(2-chloro-4-phenoxybenzoyl)-2-((methoxy-d3)methyl)-2-(methyl-d3)-1,2,4,7-tetrahydro-3H-pyrrolo[3′,2′:5,6]pyrido[3,4-b]pyrazin-3-one], the IC50 was found to be 10.6 nM at BTK; 17 nM against p-BTK (WT); 39.2 nM on p-BTK (C481S); 72.8 nM in the experiment with TMD-8 cells (Homo sapiens, TMD8, 72 h); 12.5 nM on BTK (C481S).

For the compound `COC[C@]1(C)Nc2c(cnc3[nH]cc(C(=O)c4ccc(Oc5c(F)cccc5OC)cc4Cl)c23)NC1=O` [Z168, (S)-9-(2-chloro-4-(2-fluoro-6-methoxyphenoxy)benzoyl)-2-(methoxymethyl)-2-methyl-1,2,4,7-tetrahydro-3H-pyrrolo[3′,2′:5,6]pyrido[3,4-b]pyrazin-3-one], the IC50 on BTK was 4.5 nM; on p-BTK (WT) it was 3.98 nM; against p-BTK (C481S), 7.26 nM; in the experiment on TMD-8 cells (Homo sapiens, TMD8, 72 h), 22.4 nM; against BTK (C481S), 6.6 nM.

As for `COC[C@]1(C)Nc2c(cnc3[nH]cc(C(=O)c4ccc(Oc5cc(F)ccc5OC)cc4Cl)c23)NC1=O` [Z169, (S)-9-(2-chloro-4-(5-fluoro-2-methoxyphenoxy)benzoyl)-2-(methoxymethyl)-2-methyl-1,2,4,7-tetrahydro-3H-pyrrolo[3′,2′:5,6]pyrido[3,4-b]pyrazin-3-one], the IC50 at BTK came to 8.5 nM; at p-BTK (WT), 10.2 nM; against p-BTK (C481S), 20.1 nM; in the experiment on TMD-8 cells (Homo sapiens, TMD8, 72 h), 46.9 nM; at BTK (C481S), 9 nM.
